From the supplement of paper PMC10307832

Columns and labels:
Assay in all cases: relative viability (nuclei count vs DMSO), 5 days (fraction); higher = more cells survive
Crizotinib + Decitabine = compound: C[C@@H](Oc1cc(-c2cnn(C3CCNCC3)c2)cnc1N)c1c(Cl)ccc(F)c1Cl [Crizotinib] + Nc1ncn([C@H]2C[C@H](O)[C@@H](CO)O2)c(=O)n1 [Decitabine] (partner 2 µM)
Procedure, shortened: (§1)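 Lung cancer cell lines, seeded in 1536-well plates, were treated the following day by pin tool with a single drug or with five library-drug doses (not always all listed) in √10 steps on top of a fixed anchor-drug dose. Cells were fixed and nuclei stained in one step after 5 days, and nuclei were counted. Relative viability is the nuclei count for treated wells divided by that for vehicle wells, reported as medians of duplicate plates.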

Crizotinib + Linsitinib = compound: C[C@@H](Oc1cc(-c2cnn(C3CCNCC3)c2)cnc1N)c1c(Cl)ccc(F)c1Cl [Crizotinib] + C[C@]1(O)C[C@@H](c2nc(-c3ccc4ccc(-c5ccccc5)nc4c3)c3c(N)nccn32)C1 [Linsitinib] (partner 1 µM)
Procedure, shortened: as §1

Olaparib + Alpelisib = compound: O=C(c1cc(Cc2n[nH]c(=O)c3ccccc23)ccc1F)N1CCN(C(=O)C2CC2)CC1 [Olaparib] + Cc1nc(NC(=O)N2CCC[C@H]2C(N)=O)sc1-c1ccnc(C(C)(C)C(F)(F)F)c1 [Alpelisib] (partner 2 µM)
Procedure, shortened: as §1

Carfilzomib + Linsitinib = compound: CC(C)C[C@H](NC(=O)[C@H](CCc1ccccc1)NC(=O)CN1CCOCC1)C(=O)N[C@@H](Cc1ccccc1)C(=O)N[C@@H](CC(C)C)C(=O)[C@@]1(C)CO1 [Carfilzomib] + C[C@]1(O)C[C@@H](c2nc(-c3ccc4ccc(-c5ccccc5)nc4c3)c3c(N)nccn32)C1 [Linsitinib] (partner 1 µM)
Procedure, shortened: as §1

Cell Line	relative viability (Crizotinib + Decitabine; first compound 0.01 µM)	relative viability (Crizotinib + Decitabine; first compound 0.03162 µM)	relative viability (Crizotinib + Decitabine; first compound 0.1 µM)	relative viability (Crizotinib + Decitabine; first compound 0.3162 µM)	relative viability (Crizotinib + Decitabine; first compound 1 µM)	relative viability (Crizotinib + Linsitinib; first compound 0.01 µM)	relative viability (Crizotinib + Linsitinib; first compound 0.03162 µM)	relative viability (Crizotinib + Linsitinib; first compound 0.1 µM)	relative viability (Crizotinib + Linsitinib; first compound 0.3162 µM)	relative viability (Crizotinib + Linsitinib; first compound 1 µM)	relative viability (Olaparib + Alpelisib; first compound 0.08 µM)	relative viability (Olaparib + Alpelisib; first compound 0.253 µM)	relative viability (Olaparib + Alpelisib; first compound 2.53 µM)	relative viability (Olaparib + Alpelisib; first compound 8 µM)	relative viability (Carfilzomib + Linsitinib; first compound 0.001 µM)	relative viability (Carfilzomib + Linsitinib; first compound 0.003162 µM)	relative viability (Carfilzomib + Linsitinib; first compound 0.01 µM)	relative viability (Carfilzomib + Linsitinib; first compound 0.03162 µM)	relative viability (Carfilzomib + Linsitinib; first compound 0.1 µM)
LOU-NH91	0.832	0.832	0.846	0.759	0.759	0.902	0.916	0.963	0.991	0.939	0.783	0.758	0.745	0.647	1.01	1.14	0.67	0.334	0.298
NCI-H1755	0.639	0.713	0.755	0.694	0.661	0.872	–	1.07	0.964	0.978	1.05	0.867	0.898	0.841	0.984	0.986	0.982	0.97	0.218
NCI-H647	0.396	0.382	0.262	0.508	0.448	1.2	0.92	1.12	1.04	1.2	1.41	1.05	1.29	0.954	0.942	1.16	0.761	0.0416	0.0315
A549	0.213	0.216	0.324	0.16	0.257	0.527	0.568	0.52	–	0.707	0.822	0.63	0.671	0.589	0.478	0.756	0.546	0.231	0.0396
LCLC-103H	0.672	0.759	0.737	0.754	0.723	0.985	1.07	1	1.15	1.3	1	0.928	1.09	0.923	0.951	0.882	1.06	1.11	0.296
NCI-H1437	0.547	0.551	0.613	0.61	0.578	0.996	–	1.03	0.996	1.04	0.987	0.987	0.929	0.764	0.965	1.08	0.984	0.388	0.117
NCI-H2170	0.407	0.475	0.467	0.402	0.471	–	–	–	–	–	0.846	0.838	0.849	0.718	–	–	–	–	–
HCC-15	0.663	0.71	0.657	0.527	0.599	0.819	0.934	0.864	0.886	0.946	0.988	0.815	0.905	0.724	0.847	0.958	0.937	0.765	0.168
NCI-H1648	–	0.498	0.401	0.488	0.452	–	–	–	–	–	–	–	–	–	–	–	–	–	–
NCI-H661	0.546	0.533	0.531	0.594	0.569	0.552	0.472	0.521	0.582	0.759	0.87	0.511	0.618	0.455	0.501	0.851	0.552	0.424	0.171
NCI-H650	0.332	0.291	0.323	–	0.343	0.858	0.868	–	0.596	0.894	1.33	1.17	1.04	0.84	0.389	1.19	0.958	0.27	0.176
RERF-LC-KJ	0.737	0.635	0.569	0.585	0.7	0.972	0.94	–	0.935	–	0.826	0.806	0.845	0.883	0.888	0.919	1.05	0.776	0.353
SK-LU-1	0.648	0.715	0.634	0.599	0.63	1.07	1.12	1.22	1.14	1.11	1.14	0.859	0.837	0.554	1.08	1.34	0.949	0.173	0.161
NCI-H1792	0.563	0.51	0.523	–	0.514	0.519	0.558	0.586	0.473	0.559	0.675	0.596	0.56	0.506	0.492	0.632	0.365	0.633	0.339
NCI-H1666	0.744	0.651	0.715	0.712	0.673	0.825	0.877	0.774	0.871	0.665	1.01	0.945	0.844	0.676	0.844	0.796	0.79	0.545	0.24
SK-MES-1	0.318	0.378	0.367	0.388	0.335	1.02	1.1	1.15	0.982	–	0.925	0.764	1.02	0.697	1.17	1.16	1.17	1.03	0.334
